Assay results reported in patent US20240269128A1, “COMPOUNDS FOR TREATING OR PREVENTING ALZHEIMER'S DISEASE” (THE UNITED STATES OF AMERICA, as represented by the …, priority 2021, published 2024).

System: H4-hAPP cells
Assay: Aβ secretion assay
Format: cell-based, human
Protocol: Aβ Secretion: H4-hAPP cells were cultivated in Opti-MEM supplemented with 10% FCS, 1% penicillin/streptomycin 200 μg/mL Hygromycin B and 2.5 μg/mL Blasticidin S. H4-hAPP cells were seeded into 96 well plates (2×10^4 cells per well). On the next day, cells in 96 well plates were treated with compounds, R.I. (DAPT 400 nM) or vehicle. 24 h later, supernatants were collected for further Aβ measurements by MSD® (V-PLEX Aβ Peptide Panel 1 (6E10) Kit, K15200E, Mesoscale Discovery).
Aβ secretion: Human APP overexpressing H4-hAPP cells were cultivated in Opti-MEM supplemented with 10% FCS, 1% penicillin/streptomycin 200 μg/mL Hygromycin B and 2.5 μg/mL Blasticidin S. H4-hAPP cells were seeded into 96 well plates (2×10^4 cells per well). On the next day, cells in 96 well plates were treated HCQ (0.25 μM, 2.5 μM and 25 μM) or the reference item (DAPT 400 nM), a γ-secretase inhibitor vehicle. 24 h later, supernatants were collected for further Aβ measurements by MSD® (V-PLEX Aβ Peptide Panel 1 (6E10) Kit, K15200E, Mesoscale Discovery).
Cultivation and treatment of H4-hAPP cells: H4-hAPP cells were thawed and cultivated in Opti-MEM supplemented with 10% FCS, 1% penicillin/streptomycin 200 μg/ml Hygromycin B and 2.5 μg/ml Blasticidin S (=culture medium). H4-hAPP cells were seeded into 96 well plates (2×10^4 cells per well). On the next day, cells in 96 well plates were treated with TUDCA (100 μM (C1), 10 μM (C2), or 1.0 μM (C3)), R.I. (DAPT 400 nM) or vehicle. Alternatively, cells in 96 well plates were treated with 25 μM HCQ/0.1 μM TUDCA (C1), 2.5 μM HCQ/100 μM TUDCA (C2), and 2.5 μM HCQ/10 μM TUDCA (C3). 24 h later, supernatants were collected for further Aβ measurements by MSD. The experiment was performed in n=6 technical replicates for all groups.
Aβ38, 40, 42 measurement: Supernatants were diluted 1:10 and analyzed for human Aβ38, 40, and 42 with MSD® 96-well MULTI-SPOT® 6E10 Abeta Triplex Assay (Mesoscale Discovery, Rockville, MD). The immune assay was carried out according to the manual and plates are read on the MESO QuickPlex SQ 120 multiplexing instrument. Analyte levels were evaluated according to adequate Aβ peptide standards (MSD) as pg per mL.
Aβ Secretion: H4-hAPP cells were cultivated in Opti-MEM supplemented with 10% FCS, 1% penicillin/streptomycin, hygromycin B (200 μg/ml), and blasticidin S (2.5 μg/ml). H4-hAPP cells were seeded into 96-well plates (2×10^4 cells per well). On the next day, cells in 96-well plates were treated with compounds, reference item [400 nM N-[N-(3,5-difluorophenacetyl-1-alanyl)]-S-phenylglycine t-butyl ester (DAPT)], or vehicle. Twenty-four hours later, supernatants were collected for further Aβ measurements by MSD [V-PLEX Aβ Peptide Panel 1 (6E10) Kit, K15200E, Mesoscale Discovery].
Culture and treatment of H4-hAPP cells: H4-hAPP cells were thawed and cultivated in Opti-MEM supplemented with 10% FCS, 1% penicillin/streptomycin 200 μg/ml Hygromycin B and 2.5 μg/ml Blasticidin S (=culture medium). H4-hAPP cells were seeded into 96 well plates (2×10^4 cells per well). On the next day, cells in 96 well plates were treated with T.I., R.I. (DAPT 400 nM) or vehicle. 24 h later, supernatants were collected for further Aβ measurements by MSD. The experiment was performed in n=6 technical replicates for all groups.
Aβ38, 40, 42 measurement in H4-hAPP cells: Supernatants were diluted 1:10 and analyzed for human Aβ38, 40, and 42 with MSD® 96-well MULTI-SPOT® 6E10 Abeta Triplex Assay (Mesoscale Discovery). The immune assay was carried out according to the manual and plates were read on the MESO QuickPlex SQ 120. Analyte levels were evaluated according to adequate Aβ peptide standards (MSD) as pg per mL.

Compound | secreted Aβ1-42 (HCQ 0.25 μM, 2.5 μM and 25 μM) | secretion of Aβ1-38 (TUDCA 100, 10, 1.0 μM, 24 h) | secretion of Aβ1-40 (TUDCA 100, 10, 1.0 μM, 24 h) | secretion of Aβ1-42 (TUDCA 100, 10, 1.0 μM, 24 h) | effect in Aβ release (H4 cells) (posterior probability of a protective effect)
CCN(CCO)CCCC(C)Nc1ccnc2cc(Cl)ccc12 (centres unmarked) [HCQ, hydroxychloroquine] | did not alter | – | – | – | –
C[C@H](CCC(=O)NCCS(=O)(=O)O)[C@H]1CC[C@H]2[C@@H]3[C@@H](O)C[C@@H]4C[C@H](O)CC[C@]4(C)[C@H]3CC[C@]12C [TUDCA, tauroursodeoxycholic acid] | – | lowers | lowers | lowers | protective
